Reference: patent publication US20090252754A1, “Vaccines containing the hiv tat protein as an adjuvant for the enhancement of cytotoxic t-cell responses” (priority 2003, published 2009)

Legend:
[1] = tested on: proteasomes purified from MIN and MON LCL's; experiment: Enzyme assays of proteasomes purified from LCL's (Suc-LLVY-AMC, Boc-LRR-AMC, Ac-YVAD-AMC); format: biochemical, human
Method: Cells (5×10^7) were washed in cold PBS and resuspended in buffer containing 50 mM Tris-HCl pH 7.5, 5 mM MgCl2, 1 mM dithiothreitol (DTT, Sigma), 2 mM ATP, 250 mM sucrose. Glass beads equivalent to the volume of the cellular suspension were added and cells were vortexed for 1 min at 4° C. Beads and cell debris were removed by 5 minutes centrifugation at 1000×g, followed by 20 minutes centrifugation at 10,000×g. Supernatants were ultracentrifuged for 1 hour at 100,000×g^44. Supernatants were loaded into an affinity column containing an agarose matrix derivatised with the MCP21 mAb specific for the α2 subunit of the proteasome (Affinity, Exeter, UK). […] Protein concentration was determined using BCA protocol (Pierce Chemical).
The fluorogenic substrates Suc-LLVY-AMC, Boc-LRR-AMC and Ac-YVAD-AMC were used to measure chymotrypsin-like, trypsin-like and post-acidic proteasome activities, respectively. […] Fluorescence was determined by a fluorimeter (Spectrafluor plus, Tecan, Salzburg, Austria) using an excitation of 360 nm and emission of 465 nm. Proteasome activity is expressed in arbitrary fluorescence units^11.
To investigate whether the differences in subunit composition detected by Western blot analysis correlated with differences in enzymatic activity, we analysed the cleavage specificity of equal amount of proteasomes isolated from MIN-Tat and MON-Tat cells or control cells. […]

[2] = tested on: proteasome subunits (α2, LMP2, LMP7, MECL1) in Jurkat cells; experiment: Western blot of proteasome subunits in Jurkat cells expressing or treated with Tat, Tat mutants or Tat peptides; format: cell-based, human
Method: Jurkat T cells expressing Tat or mutated Tat (referred to as Tat22, wherein a Cys at position 22 is mutated) have previously been described (1). Cells were cultured in a medium supplemented with 800 μg/ml neomycin (Sigma, St. Louise, […].).
Cells were lysed with glass beads as previously described (4). Supernatants were ultracentrifuged for 1 h at 100,000 g and loaded into an affinity column containing a matrix derivatised with the MCP21 mAb specific for the α2 subunit of the proteasome (Affinity, Exeter, UK). Proteasomes were eluted with 25 mM Tris-HCl pH 7.5 containing 2 M NaCl, and 0.5 ml fractions were collected. Homogeneity of the eluted material was confirmed by analysis of an aliquot by SDS 12% PAGE and Coomassie blue staining of the gel. Fractions containing proteasomes were combined and dialysed against 25 mM Tris-HCl pH 7.5. Protein concentration was determined using the BCA method (Pierce Chemical, Rockford, Ill.).
Equal amounts of proteins, or equal amounts of purified proteasomes, were loaded on a 12% SDS-PAGE and electro-blotted onto Protran nitrocellulose membranes (Schleicher & Schuell, Keene, Hampshire, USA). Blots were probed with Abs specific for α2, LMP2 LMP7, MECL1, and PA28α subunits (Affinity), and developed by enhanced chemi-luminescence (ECL, Amersham Pharmacia Biotech, Uppsala, SW).

[3] = tested on: proteasome subunits (α2, PA28α, LMP2, LMP7, MECL1) in MIN and MON LCL's; experiment: Western blot of proteasome subunits in lymphoblastoid cell lines expressing or treated with Tat; format: cell-based, human
Method: PG13 murine amphotropic packaging cell line^54 was cultured in DMEM supplemented with 10% FCS. Jurkat T cell transfectants (pRPneo-c and pRPneo-c-Tat)^22 were cultured in RPMI 1640 medium, supplemented with 10% FCS and 800 μg/ml neomycin (Sigma). Lymphoblastoid cell lines (LCL) were established by in vitro infection of normal B-lymphocytes from healthy donors with the B95.8 strain of EBV. LCL's were cultured in RPMI 1640 medium supplemented with 10% FCS.
MIN and MON LCL's were transduced with pBabePuro-Tat (MIN-Tat and MON-Tat) or pBabePuro (MIN-0 and MON-0) recombinant retroviruses by co-cultivation with packaging cell lines using transwell-clear tissue culture membranes. Subconfluent PG13 pBabePuro and PG13 pBabePuro-Tat cells, grown in the lower chamber, were co-cultivated in the presence of 8 μg/ml polybrene (Sigma) with MIN or MON LCL's (3×10^6/well) added to the upper chamber in 2.5 ml of RPMI 1640 medium supplemented with 10% FCS. After 48 hrs of co-cultivation, cells were harvested from the membranes and grown in culture medium containing puromycin (0.3 μg/ml) for 6 weeks. All cell lines were characterised by DNA-PCR, RT-PCR and Northern blot analysis.
Equal amounts of proteins were loaded on a 12% SDS-PAGE gel and electroblotted onto Protran nitrocellulose membranes (Schleicher & Schuell, Keene, Hampshire, USA). The blots were probed with antibodies specific for α2, LMP2, LMP7, MECL1, and PA28α subunits (Affinity, Exeter, UK) and developed by enhanced chemiluminescence (ECL, Amersham Pharmacia Biotech, Uppsala, SW).
To test the effect on proteasomes in cells after the up-take of exogenous Tat protein, MIN and MON LCL's were cultured in the absence or presence of increasing concentrations of biologically active Tat protein for 24 hours at 37° C. After treatment, the expression of the different subunits was analysed and compared to that of untreated cells. […] However, treatment with 0.1-1 μg/ml of Tat determined a down-regulation of LMP2 and an up-regulation of LMP7 and MECL1 as compared to untreated cells (FIG. 4).

[4] = endogenous expression of Tat in Jurkat cells
[5] = LCL's expressing endogenous Tat vs control cells
[6] = LCL's treated with 0.1-1 μg/ml of Tat, 24 hours, vs untreated

For “Tat: HIV-1 Tat protein from HTLV type IIIB isolate, expressed in E. Coli or endogenously in cells; wild type SEQ ID NO 284”, the “three proteolytic activities of proteasomes” value ([1]; proteasomes from MIN and MON LCL's treated with 0.1 μg/ml of Tat (data not shown)) was “increase of all three proteolytic activities”, the “chymotryptic-like, tryptic-like and post-acidic activities of proteasomes” value ([1]; proteasomes from MIN-Tat and MON-Tat cells vs control cells) was “higher” and the “LMP2 expression in total cell lysates” value ([2]; Jurkat cells treated for 24 h with 0.1 μg/ml) was “induced down-regulation”. For the same substance, the “expression of LMP2 subunit from purified proteasomes” value ([2]; Jurkat cells, exogenous native Tat, 24 h, 0.1-1 μg/ml) was “maximal down-modulation”, the “expression of LMP2” value [2, 4] was “down-regulation” and the “expression of LMP7” value [2, 4] was “up-regulation”. The “expression of MECL1” value [2, 4] was “up-regulation”, the “proteasome expression (α2-subunit)” value ([3]; LCL's expressing endogenous Tat (MIN-Tat, MON-Tat) vs control cells) was “No difference” and the “expression of LMP2” value [3, 5] was “marked down-regulation”. The “expression of LMP7” value [3, 5] was “up-regulation”, the “expression of MECL1” value [3, 5] was “up-regulation” and the “expression of PA28α regulator” value [3, 5] was “no differences”. The “expression of LMP2” value [3, 6] was “down-regulation”, the “expression of LMP7” value [3, 6] was “up-regulation” and the “expression of MECL1” value [3, 6] was “up-regulation”. The “expression of the α2-subunit” value ([3]; MIN and MON LCL's cultured with exogenous Tat protein, 24 hours, vs untreated) was “No difference”.
